The values that follow come from patent US6096512A, “Cloned DNA encoding a UDP-GalNAc: Polypeptide, N-acetylgalactosaminyltransferase” (Pharmacia & Upjohn Company, priority 1997, dated 2000).

“And” between values parts separate entries of the source, which are not always exact repeats. Equal entries are not always repeated. Residues, ends and D or L forms follow the SMILES beside them. Bounds are passed on as bounds.

In series [1] the target is T1, bovine colostrum GalNAc-transferase (Bos taurus, UniProt Q07537).
T1 sequence (Q07537 41-559): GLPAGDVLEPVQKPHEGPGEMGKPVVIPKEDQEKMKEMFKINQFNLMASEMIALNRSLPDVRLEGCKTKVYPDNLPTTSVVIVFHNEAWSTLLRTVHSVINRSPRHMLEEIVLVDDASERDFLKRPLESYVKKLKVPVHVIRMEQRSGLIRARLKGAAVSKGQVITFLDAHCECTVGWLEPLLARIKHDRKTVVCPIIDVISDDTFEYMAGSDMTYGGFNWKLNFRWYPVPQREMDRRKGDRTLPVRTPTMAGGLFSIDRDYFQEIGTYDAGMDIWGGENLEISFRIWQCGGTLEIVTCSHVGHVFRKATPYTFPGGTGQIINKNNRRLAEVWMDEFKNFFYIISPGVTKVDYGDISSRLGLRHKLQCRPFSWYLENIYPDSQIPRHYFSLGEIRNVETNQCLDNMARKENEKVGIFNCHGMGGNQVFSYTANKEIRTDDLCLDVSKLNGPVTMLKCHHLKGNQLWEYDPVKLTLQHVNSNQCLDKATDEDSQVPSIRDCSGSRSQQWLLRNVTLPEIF
The series can be described thus: Comparison of different synthetic peptides as acceptors (Biogel P-2 separation). Format: biochemical. An excerpt:
(§1) The t-Boc-amino acids and the PAM resin solid supports are supplied by ABI. The completed peptides are removed from the supporting resin, concurrently with the side chain-protecting groups, by a standard HF cleavage procedure using anisole as a cation scavenger (10% v/v). The crude peptides are purified by preparative reverse phase chromatography on a C18 Vydac column (2.5×30 cm) using a water/acetonitrile gradient, each phase containing 0.1% TFA.
The transfer of N-acetylgalactosamine to peptide acceptors is assayed by two different assays. […] For the determination of kinetic parameters the reaction mixture contains 50 mM Imidazole, pH 7.2, 10 mM MnCl2, 0.5% Triton X-100, 150 μM UDP-GalNAc, approximately 120,000 cpm of UDP-[1-^3 H]-GalNAc, varying concentrations of acceptor (see individual experiments) and approximately 5 mU of enzyme in a final volume of 40 μl; standard incubation time is 20 minutes. The reaction is terminated by placing the samples in a boiling water bath for 1.5 minutes. The reaction product (glycosylated peptide) is separated from unreacted UDP-GalNAc by chromatography on Dowex-2 columns (0.5 ml bed volume) equilibrated in water; the run-through fraction (2.5 ml) containing the glycosylated peptide is collected, supplemented with scintillation fluid and counted for radioactivity. For the determination of the low levels of transfer to serine, the assay conditions are as follows: 50 mM Imidazole, pH 7.2, 10 mM MnCl2, 0.5% Triton X-100, 150 μM UDP-GalNAc, approximately 260,000 cpm UDP-[^3 H]-GalNAc and 3.2 mM acceptor peptide (the concentration of RSPPP is 3.7 mM). […] Following incubation, the enzyme is inactivated by placing the samples on a boiling water bath for 1.5 minutes. The samples are then allowed to cool and the reaction products are separated from unreacted UDP-GalNAc and free GalNAc by chromatography on a Biogel P-2 column (1×50 cm) equilibrated in 7% isopropanol; thirty 1.3 ml fractions are collected.
Assays were done as described in Materials and Methods. The products
were separated by Biogel P-2 chromatography. Assay times were 20 […]

Series [2] deals with T1, bovine colostrum GalNAc-transferase. Kind of series: Determination of kinetic parameters for acceptor peptides. Format: biochemical.
Excerpt: as §1
The transfer of N-acetylgalactosamine to peptide acceptors is assayed by two different assays. […] For the determination of kinetic parameters the reaction mixture contains 50 mM Imidazole, pH 7.2, 10 mM MnCl2, 0.5% Triton X-100, 150 μM UDP-GalNAc, approximately 120,000 cpm of UDP-[1-^3 H]-GalNAc, varying concentrations of acceptor (see individual experiments) and approximately 5 mU of enzyme in a final volume of 40 μl; standard incubation time is 20 minutes. The reaction is terminated by placing the samples in a boiling water bath for 1.5 minutes. The reaction product (glycosylated peptide) is separated from unreacted UDP-GalNAc by chromatography on Dowex-2 columns (0.5 ml bed volume) equilibrated in water; the run-through fraction (2.5 ml) containing the glycosylated peptide is collected, supplemented with scintillation fluid and counted for radioactivity. […]

Series [3] relates to GalNAcTs (cloned soluble GalNAc-transferase). Kind of series: Transfer of N-acetylgalactosamine to synthetic acceptor peptides by soluble GalNAc-transferase, kinetic parameters. Particulars: read-out: Km for UDP-GalNAc.
Series [4] has as its system GalNAc-transferase activity in Sf9 cells. The series can be described thus: Expression of baculovirus isolates of the GalNAc-transferase in Sf9 cells, GalNAcT activity. Format: cell-based, Spodoptera frugiperda. As for the experimental part: (§2) The standard assay for UDP-GalNAc:polypeptide, N-acetylgalactosaminyltransferase activity during purification contained the following components in a final volume of 80 μl: 50 mM Imidazole pH 7.2, 10 mM MnCl2, 0.5% Triton X-100, 15 μM UDP-GalNAc, UDP[1-^3 H-] GalNAc (27,000 cpm/assay), 0.15 mg/ml apomucin and varying amounts of enzyme (see individual experiments). The reaction mixture is incubated at 37° C. for 5-10 minutes (see individual experiments) and the reaction product is TCA precipitated and radioactivity measured as described. Assays for activity in lysates from Spodoptera frugiperda cell line 9 (hereinafter referred to as Sf9 cells) are carried out as described by Thomsen et al., (1990).
The putative GalNAcT coding region, pCR1000-91B, is digested with SstII and HindIII (both enzymes cut only in pCR1000 sequences that flank the insert; FIG. 2C) and these sites are blunted using T4 DNA polymerase so that it can be cloned into a baculovirus expression vector. BamHI linkers are then ligated onto the blunted ends and the resulting sample is ligated into the BamHI site of the baculovirus expression vector pAC373 (Summers and Smith, 1986). The resulting isolates are screened for proper orientation of the GalNAcT open reading frame with respect to the baculovirus polyhedron promoter, to yield pAC373-GalNAcT. […]

Series [5] deals with T1, bovine colostrum GalNAc-transferase. The series can be described thus: Transfer of N-acetylgalactosamine to protein acceptors by bovine colostrum GalNAc-transferase. It is filed as biochemical. As to conditions: for acceptor activity in words: native or reduced and carboxymethylated. As for the experimental part:
as §2
The above conclusions and the predictions of the specificity algorithm are validated experimentally by studying the ability of bovine colostrum GalNAc-transferase to transfer N-acetylgalactosamine to a variety of acceptors, both native proteins and synthetic acceptor peptides. The transfer of N-acetylgalactosamine to protein acceptors is assayed as described by Elhammer and Kornfeld, 1986, with minor modifications. The concentration of UDP-GalNAc is saturating in all assays; a Km of 8 μM is reported for bovine colostrum GalNAc-transferase (Elhammer and Kornfeld, 1986).
The transfer of N-acetylgalactosamine to protein acceptors was assayed
under standard conditions (see Material and Methods). The acceptor
concentration was 65 μM, the enzyme concentration approximately
65 mU/ml and assay time was 60 minutes. The transfer to both native and
reduced-carboxymethylated acceptors was assayed.

For `N=C(N)NCCC[C@H](N)C(=O)N[C@@H](CO)C(=O)N1CCC[C@H]1C(=O)N1CCC[C@H]1C(=O)N1CCC[C@H]1C(=O)O` [RSPPP, Arg-Ser-Pro-Pro-Pro] (H-RSPPP-OH), the “slower glycosylation than PPAdSSdSAPG” value in series [1] (RSPPP vs PPAdSSdSAPG) was “three times slower than PPAdSSdSAPG”. The Relative rate in series [1] ([…]) is 1/751. For the same molecule, the Product formed in series [1] (assay time 8 hours, 3.2 mM acceptor (RSPPP 3.7 mM)) turned out to be 0.67 nmol/min/mg.

What is called Km is the concentration of substrate that gives half-maximal velocity. Regarding `C[C@@H](O)[C@H](NC(=O)[C@@H](N)CCCNC(=N)N)C(=O)N1CCC[C@H]1C(=O)N1CCC[C@H]1C(=O)N1CCC[C@H]1C(=O)O` [RTPPP, Arg-Thr-Pro-Pro-Pro] (H-RTPPP-OH), the Km in series [2] (20 minutes, mean, S.E. (n = 3)) was determined as 3300 ± 600 µM. Further, in series [2] (from Km and Vmax), the “Vmax /Km” value worked out at 183 M⁻¹ s⁻¹.

Take `CC(=O)N[C@H]1[C@@H](OP(=O)(O)OP(=O)(O)OC[C@H]2O[C@@H](n3ccc(=O)[nH]c3=O)[C@H](O)[C@@H]2O)O[C@H](CO)[C@H](O)[C@@H]1O` [UDP-GalNAc, UDP-N-acetylgalactosamine]: the Michaelis-Menten constant (Km) in series [3] is ~1.7 µM and 1.7 µM.

Turning to “CMW Pol-1: baculovirus containing an unrelated gene, human cytomegalovirus DNA polymerase gene [reference compound]”, the Specific activity in series [4] (Sf9 cell lysates, 48 hours post infection) is recorded as 0.13 Units/mg protein. Moreover, the Relative rate in series [4] (relative to uninfected cells) is listed as 0.8.

Consider “Bovine cytochrome C: contains one Ser and eight Thr residues but no predicted potential sites [reference compound]”, for which, in series [5] (acceptor 65 μM, enzyme approximately 65 mU/ml, 60 minutes, native), the “Product formed, native acceptor” value is under 0.1 nmol/min/mg. Also, the “Product formed, reduced and carboxymethylated acceptor” value in series [5] (acceptor 65 μM, enzyme approximately 65 mU/ml, 60 minutes, myelin basic protein was not reduced and carboxymethylated) is under 0.1 nmol/min/mg. The “acceptor activity in words” value in series [5] (listed as bovine cytochrome C) is “is not an acceptor for the enzyme”; in series [5] (listed as cytochrome C) it was “completely inactive as an acceptor”.
